{"source": "patent US20070021441A1", "about": "(priority 2003, published 2007)", "test_system": "Pyricularia oryzae", "assay_type": "in vivo", "conditions": "individual active compound, protective, inoculated next day, assessed after 6 days", "note": "Read-outs that look alike come from different tables or passages of the source."}
{"smiles": "CC1CCN(c2c(-c3c(F)cccc3Cl)c(Cl)nc3ncnn23)CC1", "note": "[A]", "values": [{"measurement": "Efficacy in % of the untreated control", "setting": "16 ppm in the spray liquor", "value": 35, "unit": "%"}, {"measurement": "Efficacy in % of the untreated control", "setting": "63 ppm in the spray liquor", "value": 61, "unit": "%"}]}
{"smiles": "C[C@H](Nc1c(-c2c(F)cc(F)cc2F)c(Cl)nc2ncnn12)C(F)(F)F", "note": "[B]", "values": [{"measurement": "Efficacy in % of the untreated control", "setting": "16 ppm in the spray liquor", "value": 48, "unit": "%"}, {"measurement": "Efficacy in % of the untreated control", "setting": "63 ppm in the spray liquor", "value": 61, "unit": "%"}]}
{"smiles": "O=C1C2CC=CCC2C(=O)N1SC(Cl)(Cl)Cl", "note": "(stereo not shown) [IIa, 2-trichloromethylsulfanyl-3a,4,7,7a-tetrahydroisoindole-1,3-dione]", "values": [{"measurement": "Efficacy in % of the untreated control", "setting": "16 ppm in the spray liquor", "value": 0, "unit": "%"}, {"measurement": "Efficacy in % of the untreated control", "setting": "63 ppm in the spray liquor", "value": 35, "unit": "%"}]}
{"smiles": "O=C1c2ccccc2C(=O)N1SC(Cl)(Cl)Cl", "note": "[IIb, 2-trichloromethylsulfanylisoindole-1,3-dione]", "values": [{"measurement": "Efficacy in % of the untreated control", "setting": "16 ppm in the spray liquor", "value": 0, "unit": "%"}, {"measurement": "Efficacy in % of the untreated control", "setting": "63 ppm in the spray liquor", "value": 8, "unit": "%"}]}
{"smiles": "CC1CCN(c2c(-c3c(F)cc(F)cc3F)c(Cl)nc3ncnn23)CC1", "note": "[compound I, 5-chloro-7-(4-methylpiperidin-1-yl)-6-(2,4,6-trifluorophenyl)[1,2,4]triazolo[1,5-a]pyrimidine]", "values": [{"measurement": "Efficacy in % of the untreated control", "setting": "16 ppm in the spray liquor", "value": 21, "unit": "%"}, {"measurement": "Efficacy in % of the untreated control", "setting": "63 ppm in the spray liquor", "value": 48, "unit": "%"}]}
